Molecular target: ERα (Homo sapiens (Human), UniProt P03372)
Assay: Estrogen receptor degradation activity: breast cancer cell ERα in cell western assay
Format: cell-based
Conditions: MCF7 cells; for % Degradation At 0.3 μM: 4 hours, normalised to fulvestrant 0.1 μM and DMSO; for IC50 / DC50: 4 hours post compound addition, concentration which degrades 50% of the estrogen receptor; for DC50: read-out: Degradation IC50
Protocol: Said test involves measuring the in vitro degradation activity of the compounds of the Table 1a.
The measurements of the degradation activities were made using a breast cancer cell ERα in cell western assay as described hereunder.
MCF7 cells (ATCC) were seeded in 384 wells microplate (collagen coated) at a concentration of 10000 cells/30 μL per well in red phenol free MEM alpha medium (invitrogen) containing 5% charcoal dextran striped FBS. The following day, 9 points serial 1:5 dilution of each compound was added to the cells in 2.5 μL at final concentrations ranging from 0.3-0.0000018 μM (in table 2), or 0.1 μM for fulvestrant (using as positive control). At 4 hours post compound addition the cells were fixed by adding 25 μL of formalin (final concentration 5% formalin containing 0.1% triton) for 10 minutes at room temperature and then washed twice with PBS. Then, 50 μL of LI-COR blocking buffer containing 0.1% Triton was added to plate for 30 minutes at room temperature. LI-COR blocking buffer was removed and cells were incubated overnight at cold room with 50 μL anti-ER rabbit monoclonal antibody (Thermo scientific MA1-39540) diluted at 1:1000 in LI-COR blocking buffer containing 0.1% tween-20. Wells which were treated with blocking buffer but no antibody were used as background control. Wells were washed twice with PBS (0.1% tween-20) and incubated at 37° C. for 60 minutes in LI-COR (0.1% tween-20) containing goat anti-rabbit antibody Alexa 488 (1:1000) and Syto-64 a DNA dye (2 μM final concentration). Cells were then washed 3 times in PBS and scanned in ACUMEN explorer (TTP-Labtech). Integrated intensities in the green fluorescence and red fluorescence were measured to determine the levels of ERα and DNA respectively.
The degradation activity with respect to estrogen receptors in this test is given by the concentration which degrades 50% of the estrogen receptor (or IC50) in nM.
The % of ERα levels decrease were determined as follows: % inhibition=100*(1−(sample−fulvestrant:DMSO−fulvestrant)).

ERα, sequence (P03372 whole entry): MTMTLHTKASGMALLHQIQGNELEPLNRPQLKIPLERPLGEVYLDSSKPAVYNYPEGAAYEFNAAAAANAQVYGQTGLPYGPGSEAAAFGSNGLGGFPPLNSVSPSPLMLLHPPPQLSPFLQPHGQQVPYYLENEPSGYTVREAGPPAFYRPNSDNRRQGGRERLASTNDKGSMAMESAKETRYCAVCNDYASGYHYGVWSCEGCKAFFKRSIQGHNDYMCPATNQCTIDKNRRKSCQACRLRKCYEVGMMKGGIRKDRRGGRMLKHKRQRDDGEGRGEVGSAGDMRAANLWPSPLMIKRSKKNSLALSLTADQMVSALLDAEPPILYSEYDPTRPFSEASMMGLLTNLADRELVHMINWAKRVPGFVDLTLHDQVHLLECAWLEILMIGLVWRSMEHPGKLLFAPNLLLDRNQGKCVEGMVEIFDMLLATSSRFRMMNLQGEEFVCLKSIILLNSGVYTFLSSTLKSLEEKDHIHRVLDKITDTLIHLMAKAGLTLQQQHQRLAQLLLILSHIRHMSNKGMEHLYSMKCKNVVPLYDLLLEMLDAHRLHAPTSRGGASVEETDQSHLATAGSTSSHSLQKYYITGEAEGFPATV

SMILES	% Degradation At 0.3 μM [%]	IC50 [nM]	DC50 [nM]
CCc1cc(C(F)(F)F)ccc1C1=C(c2ccc(C=C3CN(CCCF)C3)cc2)c2ccc(C(=O)O)cc2CCC1 [Compound 25, 8-(2-ethyl-4-(trifluoromethyl)phenyl)-9-(4-((1-(3-fluoropropyl)azetidin-3-ylidene)methyl)phenyl)-6,7-dihydro-5H-benzo[7]annulene-3-carboxylic acid]	91	0.4	–
COc1ccc(C2=C(c3ccc(C=C4CN(CCCF)C4)cc3)c3ccc(C(=O)O)cc3CCC2)cc1OC [Compound 82, 8-(3,4-dimethoxyphenyl)-9-(4-((1-(3-fluoropropyl)azetidin-3-ylidene)methyl)phenyl)-6,7-dihydro-5H-benzo[7]annulene-3-carboxylic acid]	95	1.4	–
Cc1c(C2=C(c3ccc(C=C4CN(CCCF)C4)cc3)c3ccc(C(=O)O)cc3CCC2)ccc(C(F)(F)F)c1F [Compound 73, 8-(3-fluoro-2-methyl-4-(trifluoromethyl)phenyl)-9-(4-((1-(3-fluoropropyl)azetidin-3-ylidene)methyl)phenyl)-6,7-dihydro-5H-benzo[7]annulene-3-carboxylic acid]	85	–	0.3
Cc1c(Cl)cccc1C1=C(c2ccc(C=C3CN(CCC(F)F)C3)cc2)c2ccc(O)cc2CCC1 [Compound 42, 8-(3-chloro-2-methylphenyl)-9-(4-((1-(3,3-difluoropropyl)azetidin-3-ylidene)methyl)phenyl)-6,7-dihydro-5H-benzo[7]annulen-3-ol]	53	6.4	–
O=C(O)c1ccc2c(c1)CCCC(c1c(F)cccc1OC(F)(F)F)=C2c1ccc(C=C2CN(CCCF)C2)cc1 [Compound 9, 8-(2-fluoro-6-(trifluoromethoxy)phenyl)-9-(4-((1-(3-fluoropropyl)azetidin-3-ylidene)methyl)phenyl)-6,7-dihydro-5H-benzo[7]annulene-3-carboxylic acid]	96	0.6	–
O=C(O)c1ccc2c(c1)CCCC(c1ccccc1C(F)F)=C2c1ccc(C=C2CN(CCCF)C2)cc1 [Compound 58, 8-(2-(difluoromethyl)phenyl)-9-(4-((1-(3-fluoropropyl)azetidin-3-ylidene)methyl)phenyl)-6,7-dihydro-5H-benzo[7]annulene-3-carboxylic acid]	93	0.2	–
O=C(O)c1ccc2c(c1)CCCC(c1ccc(C(F)F)cc1OC(F)(F)F)=C2c1ccc(C=C2CN(CCCF)C2)cc1 [Compound 54, 8-(4-(difluoromethyl)-2-(trifluoromethoxy)phenyl)-9-(4-((1-(3-fluoropropyl)azetidin-3-ylidene)methyl)phenyl)-6,7-dihydro-5H-benzo[7]annulene-3-carboxylic acid]	95	0.5	–
COc1cc(C2=C(c3ccc(C=C4CN(CCCF)C4)cc3)c3ccc(C(=O)O)cc3CCC2)ccc1C(F)(F)F [Compound 50, 9-(4-((1-(3-fluoropropyl)azetidin-3-ylidene)methyl)phenyl)-8-(3-methoxy-4-(trifluoromethyl)phenyl)-6,7-dihydro-5H-benzo[7]annulene-3-carboxylic acid]	92	8.5	–
COc1ccc(C2=C(c3ccc(C=C4CN(CCCF)C4)cc3)c3ccc(C(=O)O)cc3CCC2)c(C(F)(F)F)c1 [Compound 62, 9-(4-((1-(3-fluoropropyl)azetidin-3-ylidene)methyl)phenyl)-8-(4-methoxy-2-(trifluoromethyl)phenyl)-6,7-dihydro-5H-benzo[7]annulene-3-carboxylic acid]	93	0.5	–
CC(F)(F)c1cc(F)ccc1C1=C(c2ccc(C=C3CN(CCCF)C3)cc2)c2ccc(C(=O)O)cc2CCC1 [Compound 15, 8-(2-(1,1-difluoroethyl)-4-fluorophenyl)-9-(4-((1-(3-fluoropropyl)azetidin-3-ylidene)methyl)phenyl)-6,7-dihydro-5H-benzo[7]annulene-3-carboxylic acid]	91	0.4	–
O=C(O)c1ccc2c(c1)CCCC(c1ccc(F)c(F)c1C(F)(F)F)=C2c1ccc(C=C2CN(CCCF)C2)cc1 [Compound 2, 8-(3,4-difluoro-2-(trifluoromethyl)phenyl)-9-(4-((1-(3-fluoropropyl)azetidin-3-ylidene)methyl)phenyl)-6,7-dihydro-5H-benzo[7]annulene-3-carboxylic acid]	90	1	–
CCc1ccc(C2=C(c3ccc(C=C4CN(CCCF)C4)cc3)c3ccc(C(=O)O)cc3CCC2)c(C(F)(F)F)c1 [Compound 19, 8-(4-ethyl-2-(trifluoromethyl)phenyl)-9-(4-((1-(3-fluoropropyl)azetidin-3-ylidene)methyl)phenyl)-6,7-dihydro-5H-benzo[7]annulene-3-carboxylic acid]	92	0.2	–

Second part, the compound after the results:

% Degradation At 0.3 μM [%]	IC50 [nM]	DC50 [nM]	SMILES
94	0.4	–	COc1cc(Cl)cc(C)c1C1=C(c2ccc(C=C3CN(CCCF)C3)cc2)c2ccc(C(=O)O)cc2CCC1 [Compound 83, 8-(4-chloro-2-methoxy-6-methylphenyl)-9-(4-((1-(3-fluoropropyl)azetidin-3-ylidene)methyl)phenyl)-6,7-dihydro-5H-benzo[7]annulene-3-carboxylic acid]
90	0.7	–	COc1c(C)cccc1C1=C(c2ccc(C=C3CN(CCCF)C3)cc2)c2ccc(C(=O)O)cc2CCC1 [Compound 3, 9-(4-((1-(3-fluoropropyl)azetidin-3-ylidene)methyl)phenyl)-8-(2-methoxy-3-methylphenyl)-6,7-dihydro-5H-benzo[7]annulene-3-carboxylic acid]
92	0.7	–	COc1cccc(C2=C(c3ccc(C=C4CN(CCCF)C4)cc3)c3ccc(C(=O)O)cc3CCC2)c1OC [Compound 81, 8-(2,3-dimethoxyphenyl)-9-(4-((1-(3-fluoropropyl)azetidin-3-ylidene)methyl)phenyl)-6,7-dihydro-5H-benzo[7]annulene-3-carboxylic acid]
86	–	0.7	CC1(C)CCC(C2=C(c3ccc(C=C4CN(CCCF)C4)cc3)c3ccc(C(=O)O)cc3CCC2)CC1 [Compound 68, 8-(4,4-dimethylcyclohexyl)-9-(4-((1-(3-fluoropropyl)azetidin-3-ylidene)methyl)phenyl)-6,7-dihydro-5H-benzo[7]annulene-3-carboxylic acid]
93	0.5	–	COc1c(Cl)cccc1C1=C(c2ccc(C=C3CN(CCCF)C3)cc2)c2ccc(C(=O)O)cc2CCC1 [Compound 49, 8-(3-chloro-2-methoxyphenyl)-9-(4-((1-(3-fluoropropyl)azetidin-3-ylidene)methyl)phenyl)-6,7-dihydro-5H-benzo[7]annulene-3-carboxylic acid]
91	0.8	–	CC1(C)CCC(C2=C(c3ncc(C=C4CN(CCCF)C4)cc3F)c3ccc(C(=O)O)cc3CCC2)CC1 [Compound 65, 8-(4,4-dimethylcyclohexyl)-9-(3-fluoro-5-((1-(3-fluoropropyl)azetidin-3-ylidene)methyl)pyridin-2-yl)-6,7-dihydro-5H-benzo[7]annulene-3-carboxylic acid]
92	0.7	–	Cc1ccc(C2=C(c3ccc(C=C4CN(CCCF)C4)cc3)c3ccc(C(=O)O)cc3CCC2)c(C)c1F [Compound 12, 8-(3-fluoro-2,4-dimethylphenyl)-9-(4-((1-(3-fluoropropyl)azetidin-3-ylidene)methyl)phenyl)-6,7-dihydro-5H-benzo[7]annulene-3-carboxylic acid]
92	0.3	–	CCc1c(F)cccc1C1=C(c2ccc(C=C3CN(CCCF)C3)cc2)c2ccc(C(=O)O)cc2CCC1 [Compound 39, 8-(2-ethyl-3-fluorophenyl)-9-(4-((1-(3-fluoropropyl)azetidin-3-ylidene)methyl)phenyl)-6,7-dihydro-5H-benzo[7]annulene-3-carboxylic acid]
91	0.9	–	C[C@H]1CC[C@@H](C2=C(c3ccc(C=C4CN(CCCF)C4)cc3)c3ccc(C(=O)O)cc3CCC2)CC1 [Compound 61, 9-(4-((1-(3-fluoropropyl)azetidin-3-ylidene)methyl)phenyl)-8-(cis-4-methylcyclohexyl)-6,7-dihydro-5H-benzo[7]annulene-3-carboxylic acid]
93	0.5	–	Cc1cccc(Cl)c1C1=C(c2ccc(C=C3CN(CCCF)C3)cc2)c2ccc(C(=O)O)cc2CCC1 [Compound 21, 8-(2-chloro-6-methylphenyl)-9-(4-((1-(3-fluoropropyl)azetidin-3-ylidene)methyl)phenyl)-6,7-dihydro-5H-benzo[7]annulene-3-carboxylic acid]

Source: patent publication US20250255848A1, “SUBSTITUTED 6,7-DIHYDRO-5H-BENZO[7]ANNULENE DERIVATIVES, PROCESSES FOR THEIR PREPARATION AND THERAPEUTIC USES THEREOF” (SANOFI, priority 2022, published 2025)
